The text below walks through data of patent US20220152067A1, “Cancer Immunotherapy Adjuvant” (lndustry-Academic Cooperation Foundation, Yonsei University, priority 2019, published 2022).

Holding throughout (type): in vivo, C57BL/6 male mice
Data set [1] relates to MC38 colorectal cancer cell line. Nature of the data set: Tumor size change in mice after MC38 colorectal cancer cell line injection and drug administration. The settings on record: subcutaneous MC-38 tumor, drug administration for 7 days; statistically proved by two-way ANOVA. The method, then:
(§1) MC-38 colorectal cancer cells (5×10^5 cells) were injected subcutaneously into 7-week-old C57BL/6 male mice. Seven days after the colorectal cancer cells were injected, the average tumor volume of the subcutaneous MC-38 tumor was about 40 mm^3. The injection method of the mouse tumor as described above was equally applied to all four groups below. Afterwards, the experimental group was divided into the vehicle administration control group, SAC-1004 and anti-PD1 co-administration group, SAC-1004 single administration group, and anti-PD1 single administration group, and the experiment was performed.
(§2) Specifically, the administration was performed as follows. SAC-1004, a vascular leak inhibitor, was dissolved in DMSO in PBS, and 1 mg per kg of mouse body weight was administered daily by intravenous injection. Anti-PD1, an immune checkpoint inhibitor, was administered at the concentration of 200 ng/mouse by intraperitoneal injection 3 times a week along with 200 ng of rat igG2a. […]
In a total of 4 groups consisting of control group, SAC-1004 and anti-PD1 co-administration group, SAC-1004 single administration group, and anti-PD1 single administration group, the tumor size changes according to the drug administration for 7 days as described above in the experimental animal model were analyzed.

Data set [2] in a line: Spleen size and weight of mice after MC38 injection and drug administration. The settings on record: MC38 model, 7 days; not statistically significant by one-way ANOVA. The method, then:
as §1, §2
In a total of 4 groups consisting of control group, SAC-1004 and anti-PD1 co-administration group, SAC-1004 single administration group, and anti-PD1 single administration group, the spleen size of mice treated with the drug for 7 days as described above in the experimental animal model was analyzed.

In data set [3] the test system is MC38 colorectal cancer cell line. Nature of the data set: Tumor weight of mice after MC38 injection and drug administration. The settings on record: MC38 model, 7 days; statistically proved by one-way ANOVA. On the procedure: as §1, §2
In a total of 4 groups consisting of control group, SAC-1004 and anti-PD1 co-administration group, SAC-1004 single administration group, and anti-PD1 single administration group, the tumor weight of mice treated with the drug for 7 days as described above in the experimental animal model was analyzed.

A further data set concerns VE-cadherin. Nature of the data set: Adherent junction expression in mouse tumor (IHC staining). The settings on record: drug administered for 14 days. On the procedure: as §1
Specifically, the administration was performed as follows. SAC-1004, a vascular leak inhibitor, was dissolved in DMSO in PBS, and 1 mg per kg of mouse body weight was administered daily by intravenous injection. […]
In a total of 4 groups consisting of control group, SAC-1004 and anti-PD1 co-administration group, SAC-1004 single administration group, and anti-PD1 single administration group, the expression of adherent junction in the tumor of the mouse treated with the drug as described above in the experimental animal model was analyzed except that the drug was administered for 14 days by daily administration of SAC-1004 for 7 days and administration of anti-PD1 3 times a week. […]

In the case of `COC(=O)CCC/C=C(\C)[C@H]1CCC2C3CC=C4C[C@@H](OC5C=C[C@H](OC(C)=O)[C@@H](COC(C)=O)O5)CC[C@]4(C)C3CC[C@@]21C` (stereo partly shown) [SAC-1004], in data set [1], the tumor size entry is “reduced compared to that in the control group”. In addition, in data set [2], the spleen weight result is given as “higher than that of the control group mice”. The tumor weight entry in data set [3] is reported as “lower than that of the anti-PD1 single administration group mice”. Also, the “ratio of intratumoral VE-cadherin” value with VE-cadherin is reported as “increased”.
